# Experimental data as given in patent publication US5240912A, “Transforming growth factor (TGF) peptides” (priority 1991, dated 1993).
# Where two headings read alike, the source gives them in different places. Positions of bridges follow the written chain, without caps; N, C: chain ends. Residues, ends and D or L forms follow the SMILES beside them. No end group written: not given here.
# Assays:
# [1] = system: BSC-1 cells infected with vaccinia virus; format: cell-based, Cercopithecus monkey; details: AraC from after the 1 hr adsorption period; 13 and 24 hr post infection
# [2] = system: anti-KLH-peptide 1 IgG; assay: Solid phase RIA, anti-KLH-peptide 1 IgG on BSA-peptide 1 conjugate; format: binding, rabbit
# Experimental: (1979) J. Immunol. Methods 28, pp. 201-206). Carrier-peptide complexes were purified by gel filtration. […] Rabbits were boosted s.c. every two weeks with the immunogen in incomplete Freund's adjuvant. The IgG fraction of the antiserum after 5 boosts was used for immunoassays and radiolabeled using Na^125 I (NEN) and Enzymobeads (Bio-Rad) to 4×10^5 cpm/μg protein. […] Plates were incubated for 4 hours at 37° C. with [^125 I]anti-KLH-peptide 1 IgG (50,000 cpm/well) in the presence or absence of inhibitors, washed and individual wells were counted.
# [3] = target: T1, EGF receptors on A-431 human epidermoid carcinoma cells (Homo sapiens, UniProt P00533); assay: [125I]EGF radioreceptor assay on A-431 cells; format: binding
# T1 construct: Human epidermoid carcinoma A431 cells have in excess of 10^6 EGF receptors per cell; endogenous in cells; host or cells: A431 human epidermoid carcinoma cells
# Experimental: A-431 human epidermoid carcinoma cells or human foreskin fibroblasts (HFF), established from primary cultures, were grown to confluence in 24-well cluster dishes (Costar) in Dulbecco's minimal essential medium (DMEM, Gibco) containing 10% fetal calf serum (FCS, Hyclone). EGF was radio-iodinated as above to between 4×10^4 and 8×10^4 cpm/ng protein. Cells were incubated at 4° C. for 60 minutes with 1 nM [^125 I]EGF in the presence of inhibitor peptides in DMEM (pH 7.4; 20 mM Hepes) containing 0.1% BSA. Cells were washed 3× with cold buffer, lysed with 0.1N NaOH, and cell-associated radioactivity was measured (γ-counter). Nonspecific binding assessed in the presence of a 100x excess of cold EGF was less than 5% and 10% of the specific binding for A-431 and HFF cells, respectively.
# [4] = system: quiescent HFF; assay: Cell proliferation assay, [3H]methyl-thymidine incorporation; format: cell-based, human
# Experimental: HFF cells were grown to confluence in 48-well cluster dishes in DMEM-10% FCS and brought to quiescence by starvation for 2 days in DMEM-0.5% FCS. Mitogens and peptides were incubated with cells at 37° C. for 18 hours prior to a 4 hour pulse with 1 μCi [^3 H]methyl-thymidine (NEN) and trichloroacetic acid precipitable radioactivity was determined.
# [5] = system: antiserum directed against peptide III; assay: Competitive radioimmunoassay with 125I-peptide III; format: binding, rabbit; details: for Relative Inhibitory Activity: half-maximal inhibitory concentration relative to peptide III, standard RIA; for effectiveness as inhibitor of precipitation of 125I-peptide III: relative to peptide III
# Experimental: Reactants were mixed in a final volume of 50 microliters of a solution containing: 20 mM sodium phosphate, at pH 7.4; 200 mM NaCl; 40 mM dithiothreitol; 0.1% (w:v) BSA; 0.1% (w:v) NaN3; ^125 I-peptide III; (10^4 cpm); antiserum at a final dilution of 1/15,000; and other additions, as specified. The reaction was initiated by the addition of antiserum and continued at 23° C. for 90 minutes. An equal volume of 10% formalin-fixed Staphalococcus A (Pansorbin, Calbiochem) was then added and incubation was continued for an additional 30 minutes at 23° C. The immunoadsorbant was removed by sedimentation through a cushion of 10% (w:v) sucrose and the amount of bound ^125 I-peptide III was determined using a gamma counter.
# [6] = target: T2, EGF receptors on A431 cells (Homo sapiens, UniProt P00533); assay: Binding of 125I-labeled rat TGF to A431 cells
# T2 construct: Human epidermoid carcinoma A431 cells have in excess of 10^6 EGF receptors per cell; endogenous in cells; host or cells: A431 human epidermoid carcinoma cells
# Experimental: was synthesized using the solid-phase technique of Ohgak et al. (1983) Journal of Immunol. Meth. 57, pp. 171-184. This oligopeptide was then coupled to keyhole limpet hemocyanin in accordance with the procedure of Baron et al. (1982) Cell 28, pp. 395-404, and used to immunize rabbits (Baron et al. (1982) Cell 28, pp. 395-404) and sheep (Lerner (1982) Nature 299, pp. 592-596). Antisera were assayed against peptide by a peroxidase-linked immunoassay (Kirkegaard and Perry Laboratories, Gaithersberg, Md.) and against homogeneous rat TGF (purified according to Example II above), by immunoprecipitation (Bister et al. (1980) J. Virol. 36, pp. 617-621) and Western blotting techniques (Burnett (1981) Analyt. Biochem. 112, pp. 195-203). Binding of ^125 I-labeled rat TGF and mouse EGF (Bethesda Research Labs, Bethesda, Md.) to A431 cells grown in 96-well microtiter plates was as described in Pross et al. (1977) Proc. Natl. Acad. Sci. USA 74, pp. 3918-3921.
# Human epidermoid carcinoma A431 cells have in excess of 10^6 EGF receptors per cell (Fabricant et al. (1977) Proc. Natl. Acad. Sci. USA 74, pp. 565-569). TGF competes with EGF for binding to these receptors. Binding of ^125 I-labeled rat TGF to these cells was blocked by an excess of unlabeled EGF and by antiserum to peptide. […]
molecule,measurement,setting,value
"Nc1ccn([C@@H]2O[C@H](CO)[C@@H](O)[C@@H]2O)c(=O)n1 [AraC, cytosine arabinoside]",VGF production relative to infected control cultures,[1],enhanced more than two-fold
CC(C)[C@@H]1NC(=O)CNC(=O)[C@H](C(C)C)NC(=O)[C@H](Cc2ccc(O)cc2)NC(=O)CNC(=O)[C@H](CO)NC(=O)[C@H](Cc2c[nH]cn2)NC(=O)[C@@H](N)CSSC[C@@H](C(=O)O)NC(=O)[C@H](CCCNC(=N)N)NC1=O [Peptide 1] (H-CHSGYVGVRC-OH; disulfide 1-10),inhibition of reaction of anti-KLH-peptide 1 antibodies with BSA-TGF peptide,[2],inhibited in a concentration-dependent fashion
same,concentration giving partial inhibition of [125I]EGF binding,[3],> 10^-6 M
same,IC50,"[4]; induced by 1 nM of EGF, read-out: Inhibition of Mitogenesis IC50 (M) EGF",> 1e-05 M
same,IC50,"[4]; induced by 1 nM of TGFα, read-out: Inhibition of Mitogenesis IC50 (M) TGFα",> 1e-05 M
CC(=O)N[C@H]1CSSC[C@@H](C(N)=O)NC(=O)[C@H](CCCNC(=N)N)NC(=O)[C@H](C(C)C)NC(=O)CNC(=O)[C@H](C(C)C)NC(=O)[C@H](Cc2ccc(O)cc2)NC(=O)CNC(=O)[C@H](CO)NC(=O)[C@H](Cc2c[nH]cn2)NC1=O [Peptide 2] (Ac-CHSGYVGVRC-NH2; disulfide 1-10),binding potency relative to EGF or TGF-α,[3],approximately 0.02%
"Ac-Cys-His-Ser-Gly-Tyr-Val-Gly-Ala-Arg-Cys-OMe (Ac-CHSGYVGARC-OMe; disulfide 1-10 (inferred)) [Peptide 3, methyl ester of the corresponding loop of hTGF]",binding potency relative to EGF or TGF-α,[3],~0.2%
CHSGYVGVRC (cysteine pairing not given here) [Peptide II],Relative Inhibitory Activity,[5],> 1500
CHSGYVGVRCEHADLLA (cysteine pairing not given here) [Peptide III],Relative Inhibitory Activity,[5],1
same,IC50,[5]; read-out: concentration producing half-maximal inhibition of precipitation of 125I-peptide III,0.0007 µM
EGF: mouse submaxillary gland epidermal growth factor [reference compound],blocking of 125I-labeled rat TGF binding to A431 cells,[6],blocked
same,highest concentration without competition in RIA,[5],greater than 1 μM
same,Relative Inhibitory Activity,[5],> 1500
same,inhibition of reaction of anti-KLH-peptide 1 antibodies with BSA-TGF peptide,[2],did not cause significant inhibition
VGVRCEHADLLA [Peptide IV],Relative Inhibitory Activity,[5],3.5
same,effectiveness as inhibitor of precipitation of 125I-peptide III,[5],only slightly less effective
VVSHFNKCPDSHT [Peptide I],Relative Inhibitory Activity,[5],> 1500
same,effectiveness as inhibitor of precipitation of 125I-peptide III,[5],ineffective
